Results published in US20230027361A1, “METTL3 MODULATORS” (priority 2019, published 2023).

Each compound was assayed against METTL3/METTL14 (Homo sapiens, UniProt Q86U44) (assay: METTL3-14 Standard Enzyme Assay (METTL3 biochemical assay)). Conditions: METTL3 biochemical assay; read-out: METTL3 IC50.
Summary of the method: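 Tritium transfer from ³H-SAM (100 nM) to biotinylated RNA (100 nM) captured on streptavidin flashplates and counted by scintillation. Enzyme complex (2.5 nM) with compound, 5 min preincubation, 30 min reaction at ambient temperature, HEPES pH 7.5 buffer, stopped by excess unlabeled SAM.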

METTL3/METTL14, sequence (Q86U44 whole entry, species assumed): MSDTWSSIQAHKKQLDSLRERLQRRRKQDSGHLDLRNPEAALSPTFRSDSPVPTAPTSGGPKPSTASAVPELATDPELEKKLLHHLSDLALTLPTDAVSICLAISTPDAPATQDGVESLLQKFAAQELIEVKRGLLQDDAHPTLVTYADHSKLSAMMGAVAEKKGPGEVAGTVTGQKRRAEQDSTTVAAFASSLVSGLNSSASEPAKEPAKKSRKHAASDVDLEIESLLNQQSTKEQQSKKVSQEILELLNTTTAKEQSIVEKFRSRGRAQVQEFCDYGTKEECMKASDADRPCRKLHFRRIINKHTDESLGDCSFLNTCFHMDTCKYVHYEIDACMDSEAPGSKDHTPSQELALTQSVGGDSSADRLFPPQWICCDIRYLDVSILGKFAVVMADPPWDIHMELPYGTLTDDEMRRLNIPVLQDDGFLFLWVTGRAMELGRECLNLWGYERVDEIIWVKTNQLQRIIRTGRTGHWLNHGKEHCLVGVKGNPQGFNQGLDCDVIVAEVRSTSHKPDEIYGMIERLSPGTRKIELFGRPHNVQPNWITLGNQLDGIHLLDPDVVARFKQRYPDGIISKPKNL
METTL3/METTL14, sequence (Q9HCE5 whole entry partner, species assumed): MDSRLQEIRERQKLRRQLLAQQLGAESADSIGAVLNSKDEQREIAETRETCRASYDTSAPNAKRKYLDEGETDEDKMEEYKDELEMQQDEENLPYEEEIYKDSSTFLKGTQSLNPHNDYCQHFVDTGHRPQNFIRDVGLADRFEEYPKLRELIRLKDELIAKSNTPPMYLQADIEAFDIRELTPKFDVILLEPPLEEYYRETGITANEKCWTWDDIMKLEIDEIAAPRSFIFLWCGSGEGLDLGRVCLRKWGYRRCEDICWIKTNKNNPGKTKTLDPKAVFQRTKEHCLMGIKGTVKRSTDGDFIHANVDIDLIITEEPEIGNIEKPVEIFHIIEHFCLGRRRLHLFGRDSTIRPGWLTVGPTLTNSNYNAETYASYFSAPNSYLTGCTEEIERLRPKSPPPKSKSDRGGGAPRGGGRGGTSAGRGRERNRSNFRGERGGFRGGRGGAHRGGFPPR

SMILES	IC50 [nM]
CNc1ccc2cc(OC[C@H]3O[C@@H](n4cc(Br)c5c(N)ncnc54)[C@H](O)[C@@H]3O)ccc2n1 [I-69]	10 to 100
Nc1ccc2ccc(OC[C@H]3O[C@@H](n4cc(Br)c5c(N)ncnc54)[C@H](O)[C@@H]3O)cc2n1 [I-71]	10 to 100
Nc1ncnc2c1c(Br)cn2[C@@H]1O[C@H](COc2ccc3ccc(N4CCCC4)nc3c2)[C@@H](O)[C@H]1O [I-72]	10 to 100
CNc1ccc2cnc(OC[C@H]3O[C@@H](n4cc(Br)c5c(N)ncnc54)[C@H](O)[C@@H]3O)nc2n1 [I-74]	> 1000
Nc1ncnc2c1ccn2[C@@H]1C[C@H](COc2ccc3ccc(N4CCCC4)nc3c2)[C@@H](O)[C@H]1O [I-82]	100 to 1000
Nc1ncnc2c1ccn2[C@@H]1C[C@H](CCc2ccc3ccc(N4CCCC4)nc3c2)[C@@H](O)[C@H]1O [I-83]	100 to 1000

The compounds below were run against METTL1/WDR4 (Homo sapiens, UniProt Q9UBP6) (assay: METTL1 Assay (METTL1 biochemical assay)). Conditions: METTL1 biochemical assay; read-out: METTL1 IC50.
Summary of the method: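 Radiometric methyltransfer by METTL1/WDR4 (6.25 nM f.c., 5 min preincubation) at ambient temperature in HEPES pH 7.5, KCl, MgCl2, DTT; started with 25 nM 3′-biotinylated RNA and 60 nM 3H-SAM, run 20 min, quenched with 15 μM cold SAM. Product captured on streptavidin flashplates (2 h, 25° C), counted by scintillation.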

METTL1/WDR4, sequence (Q9UBP6 whole entry, species assumed): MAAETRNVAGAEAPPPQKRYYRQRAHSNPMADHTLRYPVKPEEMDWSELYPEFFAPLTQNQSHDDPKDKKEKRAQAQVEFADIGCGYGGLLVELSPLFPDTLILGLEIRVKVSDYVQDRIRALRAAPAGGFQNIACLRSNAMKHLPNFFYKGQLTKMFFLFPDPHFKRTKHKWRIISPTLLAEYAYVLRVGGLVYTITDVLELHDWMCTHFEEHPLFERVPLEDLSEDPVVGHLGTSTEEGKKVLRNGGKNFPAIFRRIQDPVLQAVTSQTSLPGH
METTL1/WDR4, sequence (P57081 whole entry partner, species assumed): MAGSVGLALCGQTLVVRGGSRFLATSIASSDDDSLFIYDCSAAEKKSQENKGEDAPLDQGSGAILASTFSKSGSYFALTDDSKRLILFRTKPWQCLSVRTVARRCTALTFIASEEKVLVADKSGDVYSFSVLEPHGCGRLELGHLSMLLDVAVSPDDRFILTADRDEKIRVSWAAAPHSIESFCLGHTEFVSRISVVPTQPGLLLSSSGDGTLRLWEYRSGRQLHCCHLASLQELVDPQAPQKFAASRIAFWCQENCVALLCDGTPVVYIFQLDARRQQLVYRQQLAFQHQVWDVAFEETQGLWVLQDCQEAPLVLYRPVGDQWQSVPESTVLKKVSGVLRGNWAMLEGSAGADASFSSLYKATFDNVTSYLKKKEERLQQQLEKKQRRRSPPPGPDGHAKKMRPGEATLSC

SMILES	IC50 [nM]
CNc1ccc2cc(OC[C@H]3O[C@@H](n4cc(Br)c5c(N)ncnc54)[C@H](O)[C@@H]3O)ccc2n1 [I-69]	> 1000

Same assay, conditions: read-out: METTL1 IC50; METTL1 biochemical assay

SMILES	IC50 [nM]
Nc1ccc2ccc(OC[C@H]3O[C@@H](n4cc(Br)c5c(N)ncnc54)[C@H](O)[C@@H]3O)cc2n1 [I-71]	> 1000
Nc1ncnc2c1c(Br)cn2[C@@H]1O[C@H](COc2ccc3ccc(N4CCCC4)nc3c2)[C@@H](O)[C@H]1O [I-72]	> 1000
CNc1ccc2cnc(OC[C@H]3O[C@@H](n4cc(Br)c5c(N)ncnc54)[C@H](O)[C@@H]3O)nc2n1 [I-74]	> 1000
Nc1ncnc2c1ccn2[C@@H]1C[C@H](COc2ccc3ccc(N4CCCC4)nc3c2)[C@@H](O)[C@H]1O [I-82]	> 1000
Nc1ncnc2c1ccn2[C@@H]1C[C@H](CCc2ccc3ccc(N4CCCC4)nc3c2)[C@@H](O)[C@H]1O [I-83]	> 1000

What follows are compounds tested against T1, METTL16 (Homo sapiens, UniProt Q86W50) (assay: METTL16 Assay (METTL16 biochemical assay)). Conditions: read-out: METTL16 IC50.
T1 sequence (Q86W50 1-562): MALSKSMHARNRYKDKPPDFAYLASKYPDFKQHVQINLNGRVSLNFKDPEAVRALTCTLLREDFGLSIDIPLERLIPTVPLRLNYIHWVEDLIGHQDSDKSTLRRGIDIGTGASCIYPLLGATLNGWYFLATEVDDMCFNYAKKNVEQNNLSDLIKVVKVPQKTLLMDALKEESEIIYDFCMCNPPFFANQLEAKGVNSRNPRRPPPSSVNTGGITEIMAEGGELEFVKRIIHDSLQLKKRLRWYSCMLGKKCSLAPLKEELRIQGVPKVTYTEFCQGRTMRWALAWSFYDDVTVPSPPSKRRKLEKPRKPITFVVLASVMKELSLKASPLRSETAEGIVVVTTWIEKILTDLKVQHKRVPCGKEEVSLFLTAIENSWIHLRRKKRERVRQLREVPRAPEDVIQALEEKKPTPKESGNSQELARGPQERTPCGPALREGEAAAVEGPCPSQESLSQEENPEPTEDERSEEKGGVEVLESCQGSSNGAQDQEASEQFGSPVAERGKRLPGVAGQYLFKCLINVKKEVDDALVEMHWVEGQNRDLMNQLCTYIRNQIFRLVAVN
Description: Assays were performed in a 25 μl-volume in 384-well V-bottom polypropylene microplates (Greiner Bio-One, cat. No. 781280) at ambient temperature. Optimized 1× assay buffer was 20 mM HEPES pH 7.5, 50 mM KCl, 1 mM DTT, 0.01% Tween, 0.01% BSG, 0.004 U/μl RNAseOUT (cat. No. 10777019, ThermoFisher Scientific, Waltham, Mass.). For compound screening METTL16 (final concentration, f.c.=100 nM) was added using a Multidrop Combi (ThermoFisher Scientific, Waltham, Mass.) and preincubated for 5 min. Reactions were started by adding 3′ biotinylated RNA ([…]-biotin) (f.c.=50 nM), 3H-SAM (f.c.=200 nM) and non-radiolabeled SAM (f.c.=800 nM) substrates. Reactions proceeded for 20 minutes and were quenched with excess non-radioactive SAM (f.c.=100 μM). The reactions were then transferred to streptavidin-coated flashplates and incubated for 2 hours at 25° C. Following two washing cycles with 0.1% Tween-20, the plates were sealed and read on a TopCount (PerkinElmer, Waltham, Mass.) plate-based scintillation counter. For determination of kinetic parameters, reaction times were optimized so that measurements were taken during the initial velocity phase of the reaction.

SMILES	IC50 [nM]
CNc1ccc2cc(OC[C@H]3O[C@@H](n4cc(Br)c5c(N)ncnc54)[C@H](O)[C@@H]3O)ccc2n1 [I-69]	> 1000
Nc1ccc2ccc(OC[C@H]3O[C@@H](n4cc(Br)c5c(N)ncnc54)[C@H](O)[C@@H]3O)cc2n1 [I-71]	> 1000
Nc1ncnc2c1c(Br)cn2[C@@H]1O[C@H](COc2ccc3ccc(N4CCCC4)nc3c2)[C@@H](O)[C@H]1O [I-72]	> 1000
CNc1ccc2cnc(OC[C@H]3O[C@@H](n4cc(Br)c5c(N)ncnc54)[C@H](O)[C@@H]3O)nc2n1 [I-74]	> 1000
Nc1ncnc2c1ccn2[C@@H]1C[C@H](COc2ccc3ccc(N4CCCC4)nc3c2)[C@@H](O)[C@H]1O [I-82]	> 1000
Nc1ncnc2c1ccn2[C@@H]1C[C@H](CCc2ccc3ccc(N4CCCC4)nc3c2)[C@@H](O)[C@H]1O [I-83]	> 1000

What follows are compounds tested against PRMT5-MEP50 (Homo sapiens, UniProt O14744) (assay: PRMT5 Assay (PRMT5 biochemical assay)). Conditions: PRMT5 biochemical assay; read-out: PRMT5 IC50.
Summary of the method: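 Radiometric methyltransferase read-out: after 60 min reaction, excess unlabelled SAM (15 μM) stops turnover and biotinylated H4 peptide (100 nM) carrying 3H-methyl from 250 nM 3H-SAM is captured on streptavidin flashplates (2 h, 25° C) for scintillation counting. Enzyme, 2.5 nM PRMT5-MEP50, was preincubated 5 min with compound in pH 8.0 Tris buffer with DTT and Tween.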

PRMT5-MEP50, sequence (O14744 whole entry): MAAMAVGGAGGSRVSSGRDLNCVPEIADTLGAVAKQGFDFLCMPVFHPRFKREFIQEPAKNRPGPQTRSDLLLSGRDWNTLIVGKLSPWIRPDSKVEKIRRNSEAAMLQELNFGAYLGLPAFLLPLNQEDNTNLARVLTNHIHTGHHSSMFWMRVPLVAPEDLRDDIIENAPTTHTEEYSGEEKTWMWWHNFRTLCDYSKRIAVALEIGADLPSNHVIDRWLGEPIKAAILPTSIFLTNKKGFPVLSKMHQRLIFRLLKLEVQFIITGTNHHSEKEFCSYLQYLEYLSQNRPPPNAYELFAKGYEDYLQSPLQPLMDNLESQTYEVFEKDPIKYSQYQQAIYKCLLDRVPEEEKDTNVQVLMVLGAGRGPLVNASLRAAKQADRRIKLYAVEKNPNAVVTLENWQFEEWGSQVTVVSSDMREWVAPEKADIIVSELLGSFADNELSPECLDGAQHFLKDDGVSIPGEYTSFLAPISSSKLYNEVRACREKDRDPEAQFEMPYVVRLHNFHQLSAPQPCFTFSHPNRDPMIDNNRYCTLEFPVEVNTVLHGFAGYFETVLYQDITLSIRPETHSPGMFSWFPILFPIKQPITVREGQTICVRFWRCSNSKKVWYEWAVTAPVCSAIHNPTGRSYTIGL
PRMT5-MEP50, sequence (Q9BQA1 whole entry partner): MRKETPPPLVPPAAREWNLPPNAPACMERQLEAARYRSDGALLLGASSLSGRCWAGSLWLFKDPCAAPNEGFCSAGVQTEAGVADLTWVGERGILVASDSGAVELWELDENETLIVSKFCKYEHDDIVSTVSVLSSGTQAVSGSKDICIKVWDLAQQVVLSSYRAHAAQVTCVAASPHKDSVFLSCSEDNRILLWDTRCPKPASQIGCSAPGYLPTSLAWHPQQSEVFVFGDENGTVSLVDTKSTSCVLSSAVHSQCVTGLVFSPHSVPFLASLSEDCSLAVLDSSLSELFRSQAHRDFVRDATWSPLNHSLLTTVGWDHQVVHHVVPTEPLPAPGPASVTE

SMILES	IC50 [nM]
CNc1ccc2cc(OC[C@H]3O[C@@H](n4cc(Br)c5c(N)ncnc54)[C@H](O)[C@@H]3O)ccc2n1 [I-69]	10 to 100
Nc1ccc2ccc(OC[C@H]3O[C@@H](n4cc(Br)c5c(N)ncnc54)[C@H](O)[C@@H]3O)cc2n1 [I-71]	< 10
Nc1ncnc2c1c(Br)cn2[C@@H]1O[C@H](COc2ccc3ccc(N4CCCC4)nc3c2)[C@@H](O)[C@H]1O [I-72]	10 to 100
CNc1ccc2cnc(OC[C@H]3O[C@@H](n4cc(Br)c5c(N)ncnc54)[C@H](O)[C@@H]3O)nc2n1 [I-74]	100 to 1000
Nc1ncnc2c1ccn2[C@@H]1C[C@H](COc2ccc3ccc(N4CCCC4)nc3c2)[C@@H](O)[C@H]1O [I-82]	100 to 1000
Nc1ncnc2c1ccn2[C@@H]1C[C@H](CCc2ccc3ccc(N4CCCC4)nc3c2)[C@@H](O)[C@H]1O [I-83]	10 to 100

These compounds were tested on MOLM-13 cells (assay: MOLM-13 96 Hour Cell Proliferation Assay). Conditions: Homo sapiens, MOLM-13, 96 h.
Type: cell-based
Description: MOLM-13 (DSMZ) cells were seeded at 600 cells per well in a volume of 44 μL in a Greiner Bio-One CELLSTAR™ 384 Well Polystyrene Cell Culture clear bottom microplate in RPMI 1640 media containing 10% fetal bovine serum using a Multidrop Combi (ThermoFisher Scientific). Cells were incubated overnight at 37° C. in a humidified tissue culture incubator. To prevent evaporation or to reduce edge effect, add 50 μL or more H2O to an empty plate, cover, and place on top of the cell plates. The Mosquito® HTS Liquid Handler was used to make a compound/media intermediate plate by aliquoting 1 μL of compound from the initial compound dilution plate (concentrations ranging from 10.0 mM to 38.0 nM in 100% DMSO) into Bio-One 384-well polypropylene conical bottom microplate containing 49 μL of media containing the appropriate serum (50-fold dilution, 2% DMSO, compound concentrations ranging from 200.0 μM and […]). The Apricot liquid handling system was used to transfer 6.2 μL compounds from the intermediate plate into the seeding plate containing 44 μL cells (8-fold dilution spanning concentrations 25.0 μM to […], 0.25% DMSO final), and placed in a humidified tissue culture incubator at 37° C. After 96 hours, 25 μL of Cell Titer-Glo reagent (Promega) was added to each well using an Integra liquid handling system. The plate was protected from light using TopSeal-A (Black) film over the entire plate, added White Bottom seal film on the bottom of the entire plate for a better reading on the Envision, and placed on an IKA plate shaker for at 300 rpm for 10 minutes at room temperature. The plate was read on an EnVision plate reader (Perkin Elmer) using the Ultra Sensitive Luminescence protocol. Data analysis was performed by normalizing the raw luminescence units to an average of the positive control values for staurosporine (100% cell death) and the negative control values for DMSO (0% cell death). An IC50 was calculated using a 4-parameter logistic nonlinear regression model in GraphPad Prism.

SMILES	IC50 [nM]
CNc1ccc2cnc(OC[C@H]3O[C@@H](n4cc(Br)c5c(N)ncnc54)[C@H](O)[C@@H]3O)nc2n1 [I-74]	> 10000
